Results taken from patent US11767298B2, “Substituted benzimidazoles as inhibitors of transforming growth factor-β kinase” (Duke University, priority 2016, dated 2023).

What was measured:
HepG2 cells = assay: HepG2 cell viability / cytotoxicity; assay type: cell-based, human; conditions: HepG2; concentrations up to 200 μM
Experimental: (§1) Cell-based anti-Plasmodium assays. For liver stage assays, 15,000 HepG2 or 8,000 Huh7 cells/well were added to 384-well microtiter plates using a multichannel pipette (Rainin). After 2 hours at 37° C., compounds (0-100 μM) were added to cells in duplicate or triplicate in a final concentration of 1% DMSO. DMSO was used as the negative control. Following compound incubation at 37° C. for ˜1 hr, harvested luciferase-expressing P. berghei ANKA sporozoites were added to the plates at a density of 3,000 sporozoites/well. P. berghei ANKA sporozoites were obtained from harvesting the salivary glands of infected A. stephensi mosquitoes. The plates were spun for 10 min at 1,000 rpm, and then incubated at 37° C. for ˜45 hrs. […] After ˜45 hours at 37° C., liver cell viability was assessed using CellTiter-Fluor (Promega) and then parasite load was determined using Bright-Glo (Promega). The relative fluorescence and luminescence signal intensity of each well was evaluated with an EnVision System. The luminescence signal in the presence of compounds was normalized to the negative control (DMSO). Dose-response analysis was performed with GraphPad Prism to yield the reported EC50 values.
(§2) Anti-Plasmodium activity was evaluated in the parasite's liver stage using a previously reported high-throughput assay. In this assay, luciferase-expressing P. berghei (murine) parasites are used to infect human hepatoma cells (HepG2) and parasite load is assessed with a luminometer subsequent to evaluating HepG2 viability using a commercially available quantification kit that measures intracellular protease activity.
(§3) Specifically, their ability to inhibit P. berghei infection in two human hepatoma cell lines (HepG2 and Huh7) as well as cytotoxicity against HepG2 and Huh7 cells was determined as described above. Liver cell cytotoxicity was evaluated with two different commercially available assays, one that tests for intracellular protease activity with a fluorescence reporter and another that relies on the luminescent detection of total ATP.

PfPK9 = assay: UBC13 phosphorylation by PfPK9 (ADP luminescence assay); assay type: biochemical, P. falciparum; conditions: compared to DMSO
Experimental: Recombinant protein expression and enzyme activity assay. Recombinant GST-tagged PfPK9 was expressed in E. coli BL21(DE3) cells, purified to homogeneity, and the GST tag was cleaved with PreScission Protease (GE Healthcare). To test for inhibition of PfPK9, the ADP detection assay ADP-Glo (Promega) was used to determine ATPase activity of PfPK9 in the presence of the PfUBC13 protein substrate when treated with compounds 1 and 5. Approximately 500 nM PfPK9 was incubated with either compound (10 μM or 500 μM) for 5 min at RT in buffer containing 40 mM Tris, pH 7.5, 20 mM MgCl2, 2 mM MnCl2 and 1 mM DTT prior to assay initiation with 100 μM ATP. The assay was performed in white low-volume 384-well plates (Corning #3824) in triplicate. The assay plate was sealed and subsequently incubated for 8 hrs at 37° C. before ADP detection per manufacturer instructions. The final assay volume was 5 μL with a final concentration of 1% DMSO. A negative control was performed in 1% DMSO and heat inactivated PfPK9 (80° C. for 5 min) was used as a positive control. The luminescence intensity in each well was measured on an EnVision system. Data were normalized to the average luminescence signal of the negative control to provide relative ADP concentrations and graphs were constructed in GraphPad Prism. Data analyses were conducted from three independent experiments. […]

Huh7 cells = assay: Huh7 cell viability / cytotoxicity; assay type: cell-based, human; conditions: concentrations up to 200 μM
Experimental: as §1, with “After 2 hours at 37° C., compounds (0-100 μM) were added to cells in duplicate or triplicate in a final concentration of 1% DMSO.” left out
as §3

P. berghei [1] = assay: Liver stage parasite load, luciferase-expressing P. berghei in HepG2 cells; assay type: cell-based, Plasmodium berghei ANKA; conditions: HepG2 host cells
Experimental: as §1, §2, §3

[2] = tested on: K63-linked ubiquitination; assay: Western blot for K63-linked ubiquitination in Plasmodium blood stage; assay type: cell-based, P. falciparum; conditions: 30 μM, 24 hr, blood stage parasites
Experimental: P. falciparum asexual blood-stage culture. P. falciparum 3D7 isolate was maintained under standard conditions in complete culturing medium [10.44 g/L RPMI 1640 (Invitrogen), 5.94 g/L HEPES (Invitrogen), 50 mg/L hypoxanthine (Sigma), 2.02 g/L sodium bicarbonate (Sigma), 5 g/L albuMAX II (Invitrogen), 25 mg/L gentamicin (Sigma), pH 7.2]. Parasite cultures were supplied with human red blood cells (Gulf Coast Regional Blood Center) at 1% hematocrit. To obtain synchronous cultures, Plasmodium parasites (at least 50% parasites were at the early-ring stage) were pelleted at 300×g for 7 min using a low brake setting and treated with 25 volume 5% D-sorbitol (Sigma) at 37° C. for 10 min. Treated parasites were then harvested and washed with 25 volume of complete culturing medium using the aforementioned centrifugation protocol, and diluted with the complete medium to 1% hematocrit to maintain the parasite culture at 37° C. and 5% CO2.
Protein extraction and Western blot for K63-linked ubiquitination in Plasmodium blood stage. […] Total protein lysates were heated in SDS loading buffer for 5 min at 80° C., analyzed on 4-20% Tris-Glycine polyacrylamide gels (Novex, Life Technologies) and subsequently transferred to nitrocellulose membranes. […]

P. berghei [3] = assay: Liver stage parasite load, luciferase-expressing P. berghei in Huh7 cells; assay type: cell-based, Plasmodium berghei ANKA; conditions: Huh7 host cells, read-out: IC50 Liver state (Huh7)
Experimental: as §1, §3

GCK = GCK (Homo sapiens, UniProt Q12851); assay: Kinase profiling (Dundee), GCK; assay type: biochemical
Experimental: (§4) Kinase selectivity profiling. The selectivity profile of HS-206 to inhibit mammalian kinases was tested against a panel of 140 kinases at a single concentration of 10 μM. Tests were performed using a radiolabeld (^33P-ATP) filter-binding assay at the International Centre for Kinase Profiling at the University of Dundee, UK (http://www.kinase-screen.mrc.ac.uk/).
(§5) This panel contains members of all major kinase families, including tyrosine kinases (TK), tyrosine kinase-like (TKL), sterile serine/threonine (STE), and CDK/MAPK/GSK/CLK (CMGC). […] For these kinases, IC50 values were determined (Table 1).

CLK2 = CLK2 (Homo sapiens, UniProt P49760); assay: Kinase profiling (Dundee), CLK2; assay type: biochemical
Experimental: as §4, §5

GFP-PfPK9 = GFP-PfPK9 (Plasmodium falciparum, UniProt Q8IEG4); assay: ATP-competitive binding assay (ATP-sepharose pull-down, FLECS); conditions: GFP-PfPK9; Kd calculated from EC50 of ATP pull-down dose-response; read-out: Kd, app
Experimental: Primary small-molecule screen. A small-molecule screen was performed similar to a previously reported fluorescence linked enzyme chemoproteomic strategy (FLECS). Briefly, HEK293-GFP-PfPK9 cells were grown in 182-cm^2 tissue culture flasks (Genesee Scientific) and harvested at ˜80% cell confluency. Before assays the culture medium was aspirated, cells were rinsed with ice cold PBS and then they were removed with a cell scraper. Cells were pelleted by centrifugation (2,000 rpm, 4° C., 2 min) and immediately lysed for assays. The pellet was suspended in buffer A (25 mM HEPES, pH 7.4, 150 mM NaCl, 60 mM MgCl2, 1 mM DTT) with 1 μM microcystin, 0.1% Triton X-100 plus a Roche Complete protease inhibitor tablet and then placed on ice for 30 min to facilitate lysis. The supernatant was collected after centrifugation (4,300 rpm, 4° C., 5 min) and used in subsequent screening and titrations experiments. For screening, the supernatant was added to ATP-sepharose beads (1:1) and incubated with agitation at 4° C. for at least 1 hr to allow binding. Following this incubation, the mixture was centrifuged, the ATP resin was washed with 9 column volumes of buffer A with 1 M NaCl and then 9 column volumes of buffer A. The ATP-sepharose medium was reconstituted as a 1:1 slurry with buffer A and then added to 96-well filter plates (50 μL/well) (Corning #3505) using a multichannel pipette (Rainin). The filter plate was on top of black 96-well catch plates (Corning #3915). An ATP dilution series (1-200 mM) was added to each plate as a positive control and DMSO was the negative control. Compounds and controls were all added to 50 μL per well in buffer A. For screening, compounds were tested in singlicate at 500 μM. The final DMSO concentration in every well was 5%. The fluorescence intensity in each well was measured on an EnVision system. Data analyses of screens were carried out in EXCEL (Microsoft, Corp.) and actives were identified as 2×background signal.
All screening positives that were verified with Western blot analysis were purchased from Enamine or Vitas-M laboratory. The purity of compounds 1-5 (shown below) was verified by high-resolution MS (Agilent). Compounds were tested in 8-point dose-response (0-500 μM) experiments in duplicate, essential as described above. The fluorescence intensity in each well was measured using an EnVision system. Dose-response analysis was performed with GraphPad Prism to acquire EC50 values. Determined EC50 values were used to calculate the observed PfPK9 Kd and reported values are the average of 2-3 independent experiments.
Stable cell line generation. The P. falciparum PK9 gene (PlasmoDB accession #PF3D7_1315100) was cloned into the pEGFP-C1 mammalian expression vector (Clontech) in frame with a […] GFP tag. For screening, HEK293 cells were transfected with the resulting PfPK9-pEGFP-C1 vector to generate HEK293-GFP-PfPK9 expressing cells using X-tremeGENE HP transfection reagent (Roche) per the manufacturer instructions. Briefly, the culture medium was replaced at 48 hours post-transfection with medium supplemented with 1 mg/mL G418 sulfate (Life Technologies) to select for stably transfected cells. Following stable cell selection, fluorescence activated cell sorting (FACS) was used to enrich for GFP-PfPK9 expressing cells. Subsequently, FACS sorted HEK293-GFP-PfPK9 cells were cultured with medium supplemented with 0.5 mg/mL G418 sulfate for all following experiments. Protein expression was verified by Western blot analysis probing for anti-GFP and by fluorescence intensity using an EnVision (PerkinElmer) system.
All 14 positive molecules were also tested for their binding affinity to PfPK9 using an optimized ATP-competitive binding assay. EC50 values ranging from low μM to low mM were observed and these EC50 values were used to derive dissociation constants as described previously. […]

MINK1 = MINK1 (Homo sapiens, UniProt Q8N4C8); assay: Kinase profiling (Dundee), MINK1; assay type: biochemical
Experimental: as §4, §5

TAK1 = target: T1, TAK1 (Homo sapiens, UniProt O43318); assay: Western Blot analysis of PROTAC-treated MDA-MB-231 cells, TAK1; assay type: cell-based
T1 construct: endogenous in cells; host or cells: MDA-MB-231
From the text: TAK1 is an Hsp90 client protein, which is why its expression is likely affected in these samples. […] This effect has previously been described as prozone effect. At high PROTAC concentrations, both E3 ligase and protein are saturated individually with PROTAC, so that the complex of ligase and protein can no longer be formed.

T1 sequence (O43318 whole entry): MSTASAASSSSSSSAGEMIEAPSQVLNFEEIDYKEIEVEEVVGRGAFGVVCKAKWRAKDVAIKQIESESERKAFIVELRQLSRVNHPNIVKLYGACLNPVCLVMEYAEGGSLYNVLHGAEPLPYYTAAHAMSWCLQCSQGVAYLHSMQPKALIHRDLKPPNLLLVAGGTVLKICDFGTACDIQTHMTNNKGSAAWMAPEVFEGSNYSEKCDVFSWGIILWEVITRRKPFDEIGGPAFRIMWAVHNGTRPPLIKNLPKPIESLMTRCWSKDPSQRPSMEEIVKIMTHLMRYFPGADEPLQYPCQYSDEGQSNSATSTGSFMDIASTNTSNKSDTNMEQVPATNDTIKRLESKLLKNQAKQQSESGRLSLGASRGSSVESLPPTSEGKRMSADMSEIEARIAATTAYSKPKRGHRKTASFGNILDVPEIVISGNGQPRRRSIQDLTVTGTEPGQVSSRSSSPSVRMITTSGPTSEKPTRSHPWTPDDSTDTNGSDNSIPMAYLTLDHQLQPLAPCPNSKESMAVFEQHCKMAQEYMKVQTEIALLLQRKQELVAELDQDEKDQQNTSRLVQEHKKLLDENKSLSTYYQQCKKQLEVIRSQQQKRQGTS
CLK2, sequence (P49760 whole entry): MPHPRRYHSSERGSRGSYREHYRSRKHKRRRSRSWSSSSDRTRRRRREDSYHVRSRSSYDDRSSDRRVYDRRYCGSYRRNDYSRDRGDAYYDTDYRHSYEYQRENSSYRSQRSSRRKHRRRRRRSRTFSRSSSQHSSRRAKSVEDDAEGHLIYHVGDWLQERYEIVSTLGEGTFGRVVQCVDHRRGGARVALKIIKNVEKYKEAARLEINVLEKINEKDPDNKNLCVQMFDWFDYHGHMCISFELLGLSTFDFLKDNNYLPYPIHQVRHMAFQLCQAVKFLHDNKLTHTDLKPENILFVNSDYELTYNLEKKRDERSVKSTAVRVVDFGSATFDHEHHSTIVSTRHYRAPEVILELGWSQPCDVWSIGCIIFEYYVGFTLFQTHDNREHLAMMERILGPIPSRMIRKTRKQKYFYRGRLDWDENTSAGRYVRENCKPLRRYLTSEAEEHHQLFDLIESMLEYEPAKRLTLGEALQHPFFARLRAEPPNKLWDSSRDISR
GCK, sequence (Q12851 whole entry): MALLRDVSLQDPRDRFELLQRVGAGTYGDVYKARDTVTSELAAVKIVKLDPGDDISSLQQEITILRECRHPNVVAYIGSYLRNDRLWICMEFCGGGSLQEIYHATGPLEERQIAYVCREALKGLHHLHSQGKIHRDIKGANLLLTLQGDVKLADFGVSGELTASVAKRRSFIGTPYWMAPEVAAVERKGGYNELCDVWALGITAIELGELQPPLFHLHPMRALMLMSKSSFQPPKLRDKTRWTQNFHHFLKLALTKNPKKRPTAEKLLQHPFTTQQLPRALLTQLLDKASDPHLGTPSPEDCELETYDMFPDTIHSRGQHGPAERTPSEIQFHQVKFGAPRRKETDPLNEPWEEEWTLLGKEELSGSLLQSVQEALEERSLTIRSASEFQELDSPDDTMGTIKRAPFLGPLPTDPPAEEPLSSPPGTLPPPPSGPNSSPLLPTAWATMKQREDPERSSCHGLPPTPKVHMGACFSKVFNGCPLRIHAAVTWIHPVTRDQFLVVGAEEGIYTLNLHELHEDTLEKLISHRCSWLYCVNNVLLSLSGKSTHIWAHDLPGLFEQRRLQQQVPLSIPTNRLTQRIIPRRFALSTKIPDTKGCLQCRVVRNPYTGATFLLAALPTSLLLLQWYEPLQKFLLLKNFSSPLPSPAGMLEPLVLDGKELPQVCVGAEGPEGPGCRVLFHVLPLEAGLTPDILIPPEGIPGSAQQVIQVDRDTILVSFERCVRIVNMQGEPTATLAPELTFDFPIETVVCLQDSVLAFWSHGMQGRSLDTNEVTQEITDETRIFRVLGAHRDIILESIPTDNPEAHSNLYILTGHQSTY
MINK1, sequence (Q8N4C8 whole entry): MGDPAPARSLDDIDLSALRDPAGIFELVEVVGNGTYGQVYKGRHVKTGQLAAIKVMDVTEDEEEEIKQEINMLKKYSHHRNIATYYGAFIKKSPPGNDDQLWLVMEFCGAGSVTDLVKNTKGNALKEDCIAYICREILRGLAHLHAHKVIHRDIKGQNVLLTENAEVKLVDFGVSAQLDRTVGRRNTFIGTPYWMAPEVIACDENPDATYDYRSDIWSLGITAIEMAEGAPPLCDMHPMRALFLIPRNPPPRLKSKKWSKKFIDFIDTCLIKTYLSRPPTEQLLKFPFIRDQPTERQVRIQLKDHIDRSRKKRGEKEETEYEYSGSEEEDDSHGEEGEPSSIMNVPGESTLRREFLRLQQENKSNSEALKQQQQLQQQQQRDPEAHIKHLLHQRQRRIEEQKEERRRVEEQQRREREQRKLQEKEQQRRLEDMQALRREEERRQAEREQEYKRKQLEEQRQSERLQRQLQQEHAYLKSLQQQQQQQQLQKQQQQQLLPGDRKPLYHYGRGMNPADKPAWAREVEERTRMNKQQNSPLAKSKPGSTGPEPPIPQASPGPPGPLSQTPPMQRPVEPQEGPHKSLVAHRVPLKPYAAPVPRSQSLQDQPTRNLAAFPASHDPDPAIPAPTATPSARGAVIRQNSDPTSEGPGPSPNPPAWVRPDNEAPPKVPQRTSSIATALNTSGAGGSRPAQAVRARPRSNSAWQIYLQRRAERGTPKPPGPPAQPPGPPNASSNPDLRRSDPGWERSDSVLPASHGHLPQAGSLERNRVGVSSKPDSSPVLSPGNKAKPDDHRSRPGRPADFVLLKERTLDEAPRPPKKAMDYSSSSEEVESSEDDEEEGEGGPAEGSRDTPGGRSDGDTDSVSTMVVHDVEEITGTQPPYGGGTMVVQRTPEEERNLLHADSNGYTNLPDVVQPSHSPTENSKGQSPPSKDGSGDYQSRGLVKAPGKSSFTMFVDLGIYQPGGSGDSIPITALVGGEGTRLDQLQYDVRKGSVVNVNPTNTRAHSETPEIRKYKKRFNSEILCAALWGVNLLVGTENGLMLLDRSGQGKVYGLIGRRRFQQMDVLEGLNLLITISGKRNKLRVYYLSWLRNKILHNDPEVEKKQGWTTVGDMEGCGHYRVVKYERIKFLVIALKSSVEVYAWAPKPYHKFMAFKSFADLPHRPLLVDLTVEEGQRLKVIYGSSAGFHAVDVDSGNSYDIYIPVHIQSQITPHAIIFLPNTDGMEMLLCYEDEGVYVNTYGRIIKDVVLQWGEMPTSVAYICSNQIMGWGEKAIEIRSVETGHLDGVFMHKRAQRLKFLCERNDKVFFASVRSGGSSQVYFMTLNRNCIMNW
GFP-PfPK9, sequence (Q8IEG4 entry or part of it): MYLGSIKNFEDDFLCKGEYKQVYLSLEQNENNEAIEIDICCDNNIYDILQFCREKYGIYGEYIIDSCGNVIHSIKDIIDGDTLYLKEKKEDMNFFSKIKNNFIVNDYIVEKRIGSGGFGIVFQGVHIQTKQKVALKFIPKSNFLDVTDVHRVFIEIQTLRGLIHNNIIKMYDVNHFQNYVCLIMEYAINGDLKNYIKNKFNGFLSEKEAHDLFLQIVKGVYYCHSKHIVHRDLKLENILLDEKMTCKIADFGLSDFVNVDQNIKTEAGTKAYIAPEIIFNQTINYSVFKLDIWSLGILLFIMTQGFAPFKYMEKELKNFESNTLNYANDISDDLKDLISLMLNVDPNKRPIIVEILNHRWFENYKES

IC50 (GCK)	IC50 (CLK2)	Kd (GFP-PfPK9)	IC50 (MINK1)	protein levels (TAK1) (TAK1; 0.1 μM)	protein levels (TAK1) (TAK1; higher concentrations)	SMILES	effect on liver cell viability (HepG2 cells)	UBC13 phosphorylation by PfPK9 (PfPK9)	effect on liver cell viability (Huh7 cells)	IC50 (P. berghei [1]; Plasmodium berghei, HepG2, parasite load)	IC50 (P. berghei [1]; parasite load)	K63-linked ubiquitination [2]	IC50 (P. berghei [3]; Plasmodium berghei, Huh-7, parasite load)	IC50 (P. berghei [3]; parasite load)
–	–	–	–	–	–	Cc1nc(-c2cccs2)c(CCC(=O)Nc2cccc3cccnc23)s1 [compound 5]	neither compound 4 or 5 had any significant effects on cell viability	significantly decreased	neither compound 4 or 5 had any significant effects on cell viability	10 µM	9.7 µM	decreased K63-linked ubiquitination in blood stage parasites albeit to a lesser extent than compound 1	9 µM	8.5 µM
430 ± 40 nM	430 ± 40 nM	~200 nM	1900 ± 1000 nM	–	–	CCCn1/c(=N/C(=O)c2cccc(C(N)=O)c2)[nH]c2ccccc21 [HS-206 (1), (E)-N-(1-Propyl-1,3-dihydro-2H-benzo[d]imidazol-2-ylidene)isophthalamide]	did not affect liver cell viability even at 200 μM	–	did not affect liver cell viability even at 200 μM	–	–	–	–	–
–	–	–	–	reduction in protein levels	no effect	CCCn1/c(=N/C(=O)c2cccc(C(N)=O)c2)[nH]c2cc(/C=C/C(=O)NCCCOCCOCCOCCOCCOCCCNc3cccc4c3C(=O)N(C3CCC(=O)NC3=O)C4=O)ccc21 (stereo not shown) [HS-237]	–	–	–	–	–	–	–	–
